{"source": "ChEMBL document CHEMBL1212941", "about": "“Eucapsitrione, an anti-Mycobacterium tuberculosis anthraquinone derivative from the cultured freshwater cyanobacterium Eucapsis sp” (J Nat Prod, 2010)", "key": {"[1]": {"tested_on": "Mycobacterium tuberculosis", "assay": "Antimycobacterial activity against Mycobacterium tuberculosis H37Rv by low oxygen recovery assay", "format": "functional"}, "[2]": {"tested_on": "Mycolicibacterium smegmatis", "assay": "Antimycobacterial activity against Mycobacterium smegmatis at 55 uM by broth microdilution method", "format": "functional, organism-based"}, "[3]": {"tested_on": "Escherichia coli", "assay": "Antibacterial activity against Escherichia coli at 55 uM by broth microdilution method", "format": "functional, organism-based"}, "[4]": {"tested_on": "Mycobacterium tuberculosis", "assay": "Antimycobacterial activity against Mycobacterium tuberculosis H37Rv by microplate alamar blue assay", "format": "functional"}, "[5]": {"tested_on": "Vero", "assay": "Cytotoxicity against african green monkey Vero cells", "format": "cell-based", "settings": "Chlorocebus sabaeus"}, "[6]": {"tested_on": "Candida albicans", "assay": "Antifungal activity against Candida albicans at 55 uM by broth microdilution method", "format": "functional, organism-based"}, "[7]": {"tested_on": "Staphylococcus aureus", "assay": "Antibacterial activity against Staphylococcus aureus at 55 uM by broth microdilution method", "format": "functional, organism-based"}}, "note": "Active and inactive are the calls of the source. The rule behind the calls is not given here."}
{"smiles": "O=c1c2cccc(O)c2c(=O)c2c(O)c3c(cc12)c(=O)c1c(O)cccc13", "note": "[EUCAPSITRIONE]", "values": [{"measurement": "MIC", "setting": "[1]", "value": 6.4, "unit": "µM"}, {"measurement": "Activity", "setting": "[2]", "value": "inactive"}, {"measurement": "Activity", "setting": "[3]", "value": "inactive"}, {"measurement": "MIC", "setting": "[4]", "value": 3.1, "unit": "µM"}, {"measurement": "IC50", "setting": "[5]", "value": "> 28", "unit": "µM"}, {"measurement": "Activity", "setting": "[6]", "value": "inactive"}, {"measurement": "Activity", "setting": "[7]", "value": "inactive"}]}
